According to patent US10646600B2, “HER2 polypeptides useful for imaging and monitoring tumors and cancers” (GE HEALTHCARE LIMITED, priority 2013, dated 2020):
Like-named read-outs stand apart in the source and are kept apart here.

Columns and labels:
human p95HER2 = test: Surface Plasmon Resonance, p95HER2 ECD-Fc-6×His; format: binding
Description: To characterize the affinity of [^19F]GE-226[SEQ ID NO 1] to HER2 protein, Surface Plasmon Resonance studies were conducted. Human, rhesus and rat HER2-ECD-Fc (SINO Biological, Beijing, China, Cat. Nr: 10004-H02H, 90020-K02H, and 80079-R02H), as well as human HER2-ECD-Fc-6×His (R&D Systems, Minneapolis, Minn., Cat. Nr: 1129-ER) and p95HER2 ECD-Fc-6×His (Syngene, Cambridge, United Kingdom) were diluted with 50 mM sodium acetate pH 4.5 (Biacore (GE Healthcare, Buckinghamshire, UK) coupling buffer) to a final concentration of 10 μg/mL. Antigen coupling to Biacore sensor chip CMS (Cat. Nr: BR-1005-30) was done according to amine coupling protocol from the instrument manual […]. HBS-EP buffer (10 mM HEPES pH 7.4, 150 mM NaCl, 3 mM EDTA and 0.005% surfactant P20; GE Healthcare, Little Chalfont, United Kingdom, Cat. Nr: BR-1006-69) was used as running buffer and as solvent for the substances. The affinity studies were performed using a Biacore T100 (GE Healthcare). [^19F]GE-226 was diluted in HBS-EP buffer to 50 nM, 25 nM, 12.5 nM, 6.25 nM, 3.125 nM, 1.56 nM, 0.78 nM, 0.39 nM, 0.195 nM, 0.097 nM, 0.049 nM and 0 nM. The flow cells of the first chip comprised of blank, human HER2-ECD-Fc-6×His, p95HER2-ECD-Fc-6×His batch I and p95HER2-ECD-Fc-6×His batch II. The flow cells on the second chip contained blank, human HER2-ECD-Fc, rhesus HER2-ECD-Fc and rat HER2 ECD-Fc. […]

rhesus HER2 = test: Surface Plasmon Resonance, rhesus HER2-ECD-Fc; format: binding
Description: To characterize the affinity of [^19F]GE-226[SEQ ID NO 1] to HER2 protein, Surface Plasmon Resonance studies were conducted. Human, rhesus and rat HER2-ECD-Fc (SINO Biological, Beijing, China, Cat. Nr: 10004-H02H, 90020-K02H, and 80079-R02H), as well as human HER2-ECD-Fc-6×His (R&D Systems, Minneapolis, Minn., Cat. Nr: 1129-ER) and p95HER2 ECD-Fc-6×His (Syngene, Cambridge, United Kingdom) were diluted with 50 mM sodium acetate pH 4.5 (Biacore (GE Healthcare, Buckinghamshire, UK) coupling buffer) to a final concentration of 10 μg/mL. Antigen coupling to Biacore sensor chip CMS (Cat. Nr: BR-1005-30) was done according to amine coupling protocol from the instrument manual (Syngene). HBS-EP buffer (10 mM HEPES pH 7.4, 150 mM NaCl, 3 mM EDTA and 0.005% surfactant P20; GE Healthcare, Little Chalfont, United Kingdom, Cat. Nr: BR-1006-69) was used as running buffer and as solvent for the substances. The affinity studies were performed using a Biacore T100 (GE Healthcare). [^19F]GE-226 was diluted in HBS-EP buffer to 50 nM, 25 nM, 12.5 nM, 6.25 nM, 3.125 nM, 1.56 nM, 0.78 nM, 0.39 nM, 0.195 nM, 0.097 nM, 0.049 nM and 0 nM. The flow cells of the first chip comprised of blank, human HER2-ECD-Fc-6×His, p95HER2-ECD-Fc-6×His batch I and p95HER2-ECD-Fc-6×His batch II. The flow cells on the second chip contained blank, human HER2-ECD-Fc, rhesus HER2-ECD-Fc and rat HER2 ECD-Fc. The immobilization of the proteins was validated with protein-A (Sigma-Aldrich, St. Louis, Mo., Cat. Nr: P6031) and anti-human IgG antibody (Perkin Elmer, Waltham, Mass., Cat. Nr: NEF803001EA). [^19F]GE-226[SEQ ID NO 1] was pumped in duplicate over cells in randomized order for 60 sec at 50 μL/min flow rate followed by 120 sec of HBS-EP to monitor dissociation. This was followed by regeneration of the chip with 50 mM sodium hydroxide for 30 sec at 30 μL/min flow rate followed by 60 sec run of HBS-EP to stabilize the surface. Kinetic calculations were performed using Langmuir 1:1 binding model and simultaneous calculation of association and dissociation phase.

- Kd (rhesus HER2; Rhesus HER2, read-out: Affinity KD): 0.0667 nM
- binding to rhesus HER2 (words) (rhesus HER2; listed as GE-226): binds with high affinity
- binding to rhesus HER2 (words) (rhesus HER2; listed as [^19F]-GE-226): high affinity binding
- Kd (rhesus HER2; rhesus HER2, text, read-out: KD): 0.067 nM
Substance: [^19F]GE-226: cold unlabeled non-radioactive 19F analogue of the tracer, used for SPR and blocking
- interaction with human p95HER2 (words) (human p95HER2): did not interact
- interaction with human p95HER2 (words) (human p95HER2; listed as 19F-Affibody analogue): did not interact
- Off-rate koff (rhesus HER2; Rhesus HER2): 0.000425 s⁻¹
- On-rate kon (rhesus HER2; Rhesus HER2, Langmuir 1:1 binding model): 6.37e+06 M⁻¹ s⁻¹
